Experimental data published in patent US20200000871A1, “B-1A LYMPHOCYTE AND/OR MACROPHAGE TARGETING AND ACTIVATION TO TREAT MEDICAL CONDITIONS WITH INFLAMMATORY OR AUTOIMMUNE COMPONENTS” (THE BOARD OF TRUSTEES OF THE LELAND STANFORD JUNIOR …, priority 2015, published 2020).
Where no end group is shown, it is not given here.

How the values were obtained:
peritoneal cells = assay: Viability of peritoneal cells incubated in vitro with fibrils; format: cell-based, C57BL/6 mice; settings: 1.0-0.125 μg/well, 30 or 120 minutes, PI staining
Description: FIG. 3. […] Peritoneal cells were isolated by lavage of C57BL/6 mice, aliquoted 500,000 cells per well of a 96 well round bottomed plate and treated with 1.0, 0.5, 0.25, 0.125 μg/well of Amylin 28-33 for 30 minutes or 120 minutes in DMEM with 10% FCS. At the end of the incubation the cells were spun, supernatant aspirated, and the cells were stained with rat anti-mouse CD11b (Pacific Blue), CD5 (PE), CD19 (APC), and incubated for 30 minutes on ice. The cells were washed once, aspirate transferred to FACS tubes, PI added, and analyzed by flow cytometry.

[1] = system: peritoneal cells (B-1a and B-2 lymphocytes, LPMs, T lymphocytes, mast cells); assay: Binding and endocytosis of FITC-Tau fibrils by peritoneal cells after i.p. injection (confocal microscopy, flow cytometry); format: in vivo, C57BL/6 mice; settings: 10 μg i.p., peritoneal cells stained for CD19 and F4/80
Description: C57B/6 female mice were injected with FITC-Tau 623-628, and peritoneal cells were isolated after 10 minutes, washed, stained with rat antimouse CD19 (PE), F4/80 (Alexa Fluor 647), and DAPI, washed, and plated on polylysine coated microscope slides. Cells were visualized using a Leica TCS SP8 white light laser confocal microscope.
Peptides were synthesized using solid phase techniques and commercially available Fmoc amino acids, resins, and reagents (PE Biosystems, Foster City Calif., and Bache, Torrance, Calif.) on an Applied Biosystems 433A peptide synthesizer as previously described. Wender et al. (2000) Proc. Natl. Acad. Sci. USA 97(24):13003-13008. […] The molecular weight of the peptides was confirmed using matrix assisted laser desorption mass spectrometry. To prevent excess amounts of fluorophore in the fibrils, Tau 623-628 was mixed at a ratio of 10:1 with an analog with FITC attached to the amino terminus of Tau 623-628 with an amino caproic acid linker. The resulting fibril mixture is referred to in the text as FITC-Tau.
Peritoneal cavity cells were obtained by flushing the peritoneal cavity with 10 ml of cold PBS containing 0.1% bovine serum albumin and 5 mM EDTA. […]

[2] = system: B-1a lymphocytes and LPMs; assay: Bioluminescence imaging of trafficking of adoptively transferred luc+ B-1a lymphocytes and LPMs; format: in vivo, C57BL/6 albino mice
Description: B-1a lymphocytes and peritoneal MΦs were purified by cell sorting of peritoneal cells isolated from luciferase transgenic mice ((B6.FVB-Ptprca Tg(CAG-luc,-GFP)L2G85Chco Thy1a/J), which express the CAT-luc-eGFP, L2G85 transgene). In the initial experiment 2×10^5 and 1×10^5 B-1a lymphocytes were injected in the peritoneum of C57BL/6 female albino mice (B6(Cg)-Tyr^c-2J/J), followed by injection of 10 μg of Tau 623-628 to activate the lymphocytes, and 0.3 mg/g body weight of luciferin substrate (D luciferin firefly L-8220 Biosynth) to initiate the bioluminescence imaging. The location of the luciferase expressing cells was measured by imaging every 5 minutes for 75 minutes.
To confirm the diminution of luminescence was due to the trafficking of the luc^+ cells, and not the degradation of the luciferin, two C57BL/6 albino mice were injected with […] peritoneal MΦs, a third with 2×10^5 B-1a lymphocytes, and fourth mouse serving as a BLI control was injected with luciferin only. The mice were subsequently injected with 10 μg of Tau 623-628 and 0.3 mg/gram of luciferin. Bioluminescence was measured immediately after the injection of luciferin and 5 minutes later. After thirty minutes the mice were reinjected with luciferin and the resultant luminescence measured. […] Imaging data were analyzed and quantified with Living Image software 4.4 (Xenogen).
Amyloidogenic peptides induce exodus of B-1a lymphocytes and LPM from the peritoneal cavity. […] The location of the luciferase expressing cells was monitored by imaging the mice every 5 minutes for 75 minutes (FIG. 5, top left). The diffuse distribution of the luminescence, corresponding to the peritoneal cavity, seen at early times, was reduced in intensity over time, with focal regions of intensity appearing to localize in inguinal lymph nodes beginning at 35 minutes (FIG. 5, top left). […]
To better assign the basis of the reduction of luminescence to the migration of the luc^+ cells, a second experiment was performed with four recipient mice. […] Bioluminescence was measured immediately after the injection of luciferin and 5 minutes later. […]

[3] = system: B-1a lymphocytes and peritoneal MΦs (SPM, LPM); assay: Differential gene expression (microarray, qPCR) in sorted B-1a lymphocytes and peritoneal MΦs after i.p. injection; format: in vivo, C57BL/6 mice; settings: 10 μg i.p., cells isolated 30-40 minutes after injection
Description: Total RNA was extracted from FACS purified B-1a lymphocytes and peritoneal MΦs pooled from 3-6 C57BL/6 female mice injected with 10 μg of LPS, Tau 623-628, Amylin 28-33, or PBS using Trizol reagent and the Qiagen RNeasy micro kit. First strand cDNA was synthesized with 30-50 ng of total RNA using Superscript III first strand synthesis supermix for qRT-PCR. QPCR assays were performed using the 7900HT Fast Real Time PCR System (Applied Biosystems), and the Taqman Gene Expression Arrays (Applied Biosystems) using commercially available primers (ABI). All assays were performed according to manufacturer's instructions. The comparative Ct method for relative quantification (ΔΔCt) was used to compare gene expression. […]
Gene expression changes associated with treatment with LPS, Amylin 28-33, and Tau 623-628, were quantified using a microarray (SurePrint G3 Mouse; Agilent Technologies). […] Analysis and quantitation of the data were done using GeneSpring and Ingenuity software.
To confirm and increase the understanding of how the fibrils are activating the peritoneal cells, differential gene induction in purified B-1a and LPMs was analyzed. […] B-1a lymphocytes (CD19^hiCD5^+CD23^−) and LPMs (CD11b^hi MΦs) from the four groups of three mice were sorted into Trizol, RNA extracted, and gene expression measured using a murine Agilent whole genome expression microchip. […]

PBMCs = assay: Type 1 IFN response and cytokine production in PBMCs of treated mice; settings: mouse, in vivo
μMT mice with EAE = assay: EAE in B cell-deficient μMT mice, with or without adoptive transfer of B-1a lymphocytes; format: in vivo; settings: 10 μg daily i.p., no cell transfer
Description: Induction of active EAE in mice by immunization with MOG and adjuvant. EAE was induced in female wild type C57Bl/6 mice or μMT and IL-10 deficient mice on C57B/6 background (Jackson Laboratories) by procedures previously described. Briefly, EAE was induced at 9 weeks of age by subcutaneous immunization in the flank with an emulsion containing 200 μg myelin oligodendrocyte glycoprotein35-55 (MOG35-55; […] (SEQ ID NO: 1065)) in saline and an equal volume of complete Freund's adjuvant containing […] mycobacterium tuberculosis H37RA (Disco Laboratories). All mice were given 400 ng of pertussis toxin (List Biological) intraperitoneal (i.p.) at 0 and 48 h post-immunization. The signs of neurological impairment were scored as follows: 0, no clinical disease; 1, tail weakness; 2, hindlimb weakness; 3, complete hindlimb paralysis; 4, hindlimb paralysis and some forelimb weakness; 5, moribund or dead. […] For intranasal inoculation, 10 μg of Amylin 28-33 in 10 μl PBS was gradually released into the nostrils of anesthetized mice. All animal protocols were approved by institutional IACUC.
B-1a lymphocytes were purified by cell sorting of peritoneal cells from wild type C57Bl/6 mice. […] Mice were examined daily for clinical signs of EAE and were scored on a five point scale described above.

## SSTNVG [Amylin 28-33, SSTNVG]
Peritoneal cells
  cell viability / cell death of peritoneal cells in vitro: does not affect cell viability

## VQIVYK [Tau 623-628, amyloidogenic hexapeptide of tau, forms amyloid fibrils]
[1]
  binding and endocytosis of fibrils by B cells and MΦs (confocal microscopy): bind and are endocytosed
[2]; 60 min compared with 5 min, luc+ LPMs, 10 μg i.p.
  increase in luminescence over inguinal lymph nodes: ~10 fold
[2]; luc+ B-1a lymphocytes, 10 μg i.p.
  time at which focal luminescence begins to localize in inguinal lymph nodes: 35 min
[2]; luc+ B-1a lymphocytes, over 75 minutes
  photons per second in the abdominal region: rapid, dose dependent, reduction of light emitted
[3]
  pattern of gene expression (microarray heatmap): induce a different pattern of gene expression than LPS
PBMCs
  type 1 IFN induction: induced a type 1 interferon (IFN) response
μMT mice with EAE
  therapeutic effect on paralytic signs of EAE in μMT mice: neither Tau 623-628, nor Amylin 28-33 was therapeutic
